Data taken from patent US8334277B2, “{4-[2-(dimethylamino)-1-(1-hydroxycyclohexyl)ethyl]phenoxy}phosphate or a pharmaceutically acceptable salt thereof, a production method therefor and a pharmaceutical composition for preventing and treating central nervous system disorders containing the same as an active component” (JE IL Pharmaceutical Co., Ltd., priority 2008, dated 2012).

Assays:
ICR mice = assay: Acute toxicity experiment, intraperitoneal injection, number of dead mice over 7 days; type: in vivo; settings: for The number of death mice: Day 1, 8 mice
Description: Experiment was conducted to measure acute toxicity of ODV phosphate compound according to an embodiment of the present invention.
7-week-old ICR mice, weighing 25˜35 g each, were used in the experiment (SPF, production firm: coretech).

[1] = Measurement of solubility in water (HPLC, saturated solution); type: physicochemical
Description: Experiment was conducted to measure water solubility of ODV phosphate compound of the present invention.
40, 50 and 60 mg of ODV phosphate composition prepared by the embodiment was mixed in 100 mL of water to form 0.4, 0.5 and 0.6 mg/mL concentration of ODV phosphate solution respectively. The above ODV phosphate solution and internal standard substance were analyzed with HPLC to measure ODV phosphate according to the concentration of ODV phosphate and peak area ratio of internal standard substance, and a calibration curve was set. The HPLC analysis was done many times to measure the average value of the calibration curve.
An excessive amount of ODV phosphate compound (approximately 400 mg) prepared by the embodiment was dissolved in 2 mL of water and filtered to form a saturated solution. 1 mL of the above saturated solution was diluted with water to prepare 20 mL of solution. The diluting process was repeated many times to form saturated solution with 800 times of dilution rate. This solution and internal standard substance were analyzed with HPLC to measure ODV phosphate and peak area ratio of internal standard. The measured value was substituted in calibration curve to calculate the concentration, and multiply the dilution rate to measure solubility.

[2] = Pharmacokinetics experiment, oral administration, blood concentration by LC/MS/MS; type: in vivo, SD rats; settings: 120 mg/kg oral
Description: 9-week-old female […], SD rats, weighing 320±20 g each, were used in the experiment (SPF, production firm: coretech). ODV phosphate compound prepared by the embodiment was dissolved in solvent (100% distilled water) and 120 mg/kg of the same was orally administered to 3 mice. After 0.08, 0.25, 0.5, 1, 2, 3, 4, 6 hours of administration, blood was taken from mice, and separated by centrifuge. The concentration of the separated blood was measured with LC/MS/MS. As a comparative example, ODV succinate hydrate was measured in the same manner explained above.
Cmax is the highest concentration level of blood in body, Tmax is the time to reach the highest concentration level of blood, AUC0-t is square between blood concentration to time and time, AUC0-inf is square between blood concentration and time, and t1/2 is half-life of compound in body, and MRTinf is remaining period of compound in body.

SMILES	dead mice over the whole observation (ICR mice; 450 mg/kg i.p., for 7 days, 8 mice)	water solubility, times higher than ODV succinate ([1]; 313.4 vs […])	solubility ([1]; thermodynamic from solid)	AUC0-inf compared with ODV succinate hydrate [2]	Cmax compared with ODV succinate hydrate [2]	The number of death mice (ICR mice; 350 mg/kg i.p.)	The number of death mice (ICR mice; 450 mg/kg i.p.)	AUC0-inf ([2]; blood)	Cmax ([2]; blood)	MRTinf ([2]; blood)	Tmax ([2]; blood)	t1/2 ([2]; blood)	AUC0-t ([2]; blood, sampling to 6 hours)
CN(C)CC(c1ccc(OP(=O)(O)O)cc1)C1(O)CCCCC1 (stereo not shown) [ODV phosphate, {4-[2-(dimethylamino)-1-(1-hydroxycyclohexyl)ethyl]phenoxy}phosphate]	no mice were dead	4 times	313 mg/mL	noticeably higher	noticeably higher								
CN(C)CC(c1ccc(O)cc1)C1(O)CCCCC1.O=C(O)CCC(=O)O (stereo not shown) [ODV succinate]						2	8	9268.8 ng·h/mL	2786.7 ng/mL	5.7 h	0.5 h	5.0 h	7017.4 ng·h/mL
